According to US20220274980A1, “PHARMACOLOGICAL INHIBITORS OF THE ENL YEATS DOMAIN” (priority 2019, published 2022):

Legend:
[1] = system: ENL target gene expression (MYC, HOXA9); test: qRT-PCR of ENL target gene expression; type: cell-based
Source text: Quantitative reverse-transcriptase PCR (qRT-PCR). […] The ddCt method was used to quantify fold change differences in gene expression between control and treated samples (using expression of B2M for normalization).

[2] = target: T1, ENL localization to chromatin of target gene promoters (Homo sapiens, UniProt Q03111); test: ENL ChIP-qPCR in MV4;11 cells; type: cell-based; conditions: HOX intergenic region as negative control locus
T1 construct: 11 cells; endogenous in cells; host or cells: MV4;11
T1 sequence (Q03111 1-559): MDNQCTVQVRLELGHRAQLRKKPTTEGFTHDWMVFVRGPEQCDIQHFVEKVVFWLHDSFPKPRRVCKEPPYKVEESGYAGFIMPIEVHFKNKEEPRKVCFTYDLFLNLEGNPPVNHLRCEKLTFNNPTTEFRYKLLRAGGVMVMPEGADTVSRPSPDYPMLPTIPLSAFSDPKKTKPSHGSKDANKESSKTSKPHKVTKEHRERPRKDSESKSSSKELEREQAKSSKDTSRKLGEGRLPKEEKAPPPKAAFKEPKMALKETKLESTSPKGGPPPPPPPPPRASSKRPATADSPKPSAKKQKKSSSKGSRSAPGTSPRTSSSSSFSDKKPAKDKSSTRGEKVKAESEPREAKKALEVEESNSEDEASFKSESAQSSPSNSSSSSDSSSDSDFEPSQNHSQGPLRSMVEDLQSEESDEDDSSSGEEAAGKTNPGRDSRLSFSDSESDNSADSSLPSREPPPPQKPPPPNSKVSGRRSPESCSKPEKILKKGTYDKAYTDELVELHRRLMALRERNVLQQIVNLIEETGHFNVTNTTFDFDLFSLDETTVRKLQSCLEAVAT
Protocol: ChIP-qPCR. Chromatin immunoprecipitation (ChIP)-qPCR of ENL was performed in MV4; 11 cells using 50 million cells per treatment. Crosslinking was performed in batches of 50 million cells in 50 mL tissue culture media by addition of 1/10 volume of 10× crosslinking solution (11% formaldehyde, 50 mM HEPES pH 7.3, 100 mM NaCl, 1 mM EDTA pH 8.0, 0.5 mM EGTA ph 8.0). After 10 min of crosslinking at room temperature, formaldehyde was quenched with 125 mM glycine, cells were then washed three times in PBS pH 7.4, flash frozen in liquid nitrogen, and stored at −80° C. Frozen pellets were thawed on ice, resuspended in cold lysis buffer 1 (LB1; 5 mL per 50 million cells; 50 mM HEPES pH 7.3, 140 mM NaCl, 1 mM EDTA, 10% glycerol, 0.5% NP-40, and 0.25% Triton X-100, Roche protease inhibitor cocktail), and rotated for 10 minutes at 4° C. LB1 was removed and pelletswere resuspended in cold lysis buffer 2 (LB2; 5 mL per 50 million cells; 10 mM Tris-HCl pH 8.0, 200 mM NaCl, 1 mM EDTA pH 8.0 and 0.5 mM EGTA pH 8.0, Roche protease inhibitor cocktail) and rotated for 10 minutes at 4° C. LB2 was removed and pellets were resuspended in cold sonication buffer (1.5 mL per 50 million cells; 50 mM HEPES pH 7.3, 140 mM NaCl, 1 mM EDTA, 1 mM EGTA, 1% Triton X-100, 0.1% Na-deoxycholate, 0.1% SDS, Roche protease inhibitor cocktail). […] Results were quantified as percentage of the input sample.

## O=C(NC1CCC1)c1ccc2nc(-c3cccc(NS(=O)(=O)NCCN4CCCCC4)c3)cn2c1 [Compound 93]
[1]
  suppression of ENL target gene expression: Suppression of ENL target gene expression
[2]
  localization of ENL to chromatin of target gene promoters by ChIP-qPCR: prevents localization of ENL to chromatin of target gene promoters
